Reference: patent US20120058989A1, “ANTIBACTERIAL FLUOROQUINOLONE ANALOGS” (Achaogen, Inc., priority 2008, published 2012)
≈ marks a conversion by molar mass, not a printed value.

Columns and labels:
Assay in all cases: MIC, CLSI broth microdilution
Format in all cases: cell-based
[1] = test system: S. pneumoniae ASPN1027 (Fluoroquinolone-resistant); details: for MIC ASPN 1027: Table 2
Experimental: (§1) Minimum inhibitory concentrations (MIC) were determined by reference Clinical and Laboratory Standards Institute (CLSI) broth microdilution methods per M7-A7 [2006]. Quality control ranges utilizing E. coli ATCC 25922, P. aeruginosa ATCC 27853 and S. aureus ATCC 29213, and interpretive criteria for comparator agents were as published in CLSI M100-S17 [2007]. Briefly, serial two-fold dilutions of the test compounds were prepared at 2× concentration in Mueller Hinton Broth. The compound dilutions were mixed in 96-well assay plates in a 1:1 ratio with bacterial inoculum. The inoculum was prepared by suspension of a colony from an agar plate that was prepared the previous day. Bacteria were suspended in sterile saline and added to each assay plate to obtain a final concentration of 5×10^5 CFU/mL. The plates were incubated at 35° C. for 20 hours in ambient air.

[2] = test system: A. baumannii AABA1009 (Fluoroquinolone-resistant); details: for MIC AABA 1009: Table 2
Experimental: as §1

[3] = test system: E. coli AECO066 (Fluoroquinolone-resistant); details: for MIC AECO 066: Table 2; for MIC: Escherichia coli, Table 2, read-out: MIC AECO 066
Experimental: as §1

[4] = test system: A. baumannii AABA1065 (Fluoroquinolone-susceptible); details: for MIC AABA 1065: Table 2; for MIC: Acinetobacter baumannii, Table 2, read-out: MIC AABA 1065
Experimental: as §1

[5] = test system: S. pneumoniae ASPN001 (Fluoroquinolone-susceptible, ATCC49619); details: for MIC ASPN 001: Table 2
Experimental: as §1

[6] = test system: S. aureus ASAU001 (Fluoroquinolone-susceptible, ATCC29213); details: for MIC ASAU 001: Table 2; for MIC: Staphylococcus aureus, Table 2, read-out: MIC ASAU 001
Experimental: as §1

[7] = test system: E. coli AECO001 (Fluoroquinolone susceptible, ATCC25922); details: Table 2, 35° C., 20 hours; for MIC: Escherichia coli, read-out: MIC AECO 001
Experimental: as §1

[8] = test system: P. aeruginosa APAE054 (Fluoroquinolone-resistant); details: for MIC APAE 054: Table 2
Experimental: as §1

[9] = test system: S. aureus ASAU1031 (Fluoroquinolone-resistant); details: for MIC ASAU 1031: Table 2
Experimental: as §1

[10] = test system: P. aeruginosa APAE001 (Fluoroquinolone-susceptible, ATCC27853); details: for MIC APAE 001: Table 2; for MIC: Pseudomonas aeruginosa, Table 2, read-out: MIC APAE 001
Experimental: as §1

Structure (SMILES)	MIC ASPN 1027 [1]	MIC AABA 1009 [2]	MIC AECO 066 [3]	MIC AABA 1065 [4]	MIC ASPN 001 [5]	MIC ASAU 001 [6]	MIC AECO 001 [7]	MIC APAE 054 [8]	MIC ([1]; Streptococcus pneumoniae, Table 2, read-out: MIC ASPN 1027)	MIC ([2]; Acinetobacter baumannii, Table 2, read-out: MIC AABA 1009)	MIC [3]	MIC [4]	MIC ([5]; Streptococcus pneumoniae, Table 2, read-out: MIC ASPN 001)	MIC [6]	MIC [7]	MIC ([8]; Pseudomonas aeruginosa, Table 2, read-out: MIC APAE 054)	MIC ([9]; Staphylococcus aureus, Table 2, read-out: MIC ASAU 1031)	MIC [10]	MIC ASAU 1031 [9]	MIC APAE 001 [10]
CCNC1CC2CCCc3c(c(F)cc4c(=O)c(C(=O)O)cn(C5CC5)c34)N2C1.O=C(O)C(F)(F)F (mixture of isomers) [7B/20, (9S)-4-cyclopropyl-9-(ethylamino)-12-fluoro-1-oxo-4,5,6,7,7a,8,9,10-octahydro-1H-pyrrolo[1′,2′:1,7]-azepino[2,3-h]quinoline-2-carboxylic acid trifluoroacetate]	C (MIC's of greater than 8.0 μg/mL = C)	C (MIC's of greater than 8.0 μg/mL = C)	C (MIC's of greater than 8.0 μg/mL = C)	A (MIC's of 1.0 μg/mL or less = A)	A (MIC's of 1.0 μg/mL or less = A)	A (MIC's of 1.0 μg/mL or less = A)	A (MIC's of 1.0 μg/mL or less = A)	C (MIC's of greater than 8.0 μg/mL = C)											B (MIC's of greater than 1.0 μg/mL to 8.0 μg/mL = B)	B (MIC's of greater than 1.0 μg/mL to 8.0 μg/mL = B)
NCC1CCN2c3c(F)cc4c(=O)c(C(=O)O)cn(C5CC5)c4c3C=CCC12.O=C(O)C(F)(F)F (racemic) [24/rac-16, (7aS*,8S*)-8-(Aminomethyl)-4-cyclopropyl-12-fluoro-1-oxo-4,7,7a,8,9,10-hexahydro-1H-pyrrolo[1′,2′:1,7]aze-pino-[2,3-h]quinoline-2-carboxylic acid trifluoroacetate]	B (MIC's of greater than 1.0 μg/mL to 8.0 μg/mL = B)	C (MIC's of greater than 8.0 μg/mL = C)	C (MIC's of greater than 8.0 μg/mL = C)	A (MIC's of 1.0 μg/mL or less = A)	A (MIC's of 1.0 μg/mL or less = A)	A (MIC's of 1.0 μg/mL or less = A)	A (MIC's of 1.0 μg/mL or less = A)	C (MIC's of greater than 8.0 μg/mL = C)											B (MIC's of greater than 1.0 μg/mL to 8.0 μg/mL = B)	B (MIC's of greater than 1.0 μg/mL to 8.0 μg/mL = B)
NCC1CCN2c3c(F)cc4c(=O)c(C(=O)O)cn(C5CC5)c4c3CCCC12.O=C(O)C(F)(F)F (racemic) [24/rac-17, (7aS*,8S*)-8-(Aminomethyl)-4-cyclopropyl-12-fluoro-1-oxo-4,5,6,7,7a,8,9,10-octahydro-1H-pyrrolo[1′,2′:1,7]-azepino[2,3-h]quinoline-2-carboxylic acid trifluoroacetate]	B (MIC's of greater than 1.0 μg/mL to 8.0 μg/mL = B)	C (MIC's of greater than 8.0 μg/mL = C)	C (MIC's of greater than 8.0 μg/mL = C)	A (MIC's of 1.0 μg/mL or less = A)	A (MIC's of 1.0 μg/mL or less = A)	A (MIC's of 1.0 μg/mL or less = A)	A (MIC's of 1.0 μg/mL or less = A)	C (MIC's of greater than 8.0 μg/mL = C)											B (MIC's of greater than 1.0 μg/mL to 8.0 μg/mL = B)	B (MIC's of greater than 1.0 μg/mL to 8.0 μg/mL = B)
O=C(O)c1cn(C2CC2)c2c3c(c(F)cc2c1=O)N1CCC[C@H]1CCC3 [1/10]									> 8 µg/mL	> 8 µg/mL	> 8 µg/mL	1 to 8 µg/mL (≈ 2.81 to 22.4 µM)	≤ 1 µg/mL	≤ 1 µg/mL	≤ 1 µg/mL	> 8 µg/mL	1 to 8 µg/mL (≈ 2.81 to 22.4 µM)	> 8 µg/mL		
N[C@H]1C[C@H]2CN=Cc3c(c(F)cc4c(=O)c(C(=O)O)cn(C5CC5)c34)N2C1.O=C(O)C(F)(F)F [5/10, (3aS,5S)-5-amino-13-cyclopropyl-8-fluoro-10-oxo-3a,4,5,6,10,13-hexahydro-3H-pyrrolo[2′,′:3,4][1,4]diazepino[5,6-h]quinoline-11-carboxylic acid trifluoroacetate]	C (MIC's of greater than 8.0 μg/mL = C)	C (MIC's of greater than 8.0 μg/mL = C)	C (MIC's of greater than 8.0 μg/mL = C)	B (MIC's of greater than 1.0 μg/mL to 8.0 μg/mL = B)	B (MIC's of greater than 1.0 μg/mL to 8.0 μg/mL = B)	B (MIC's of greater than 1.0 μg/mL to 8.0 μg/mL = B)	A (MIC's of 1.0 μg/mL or less = A)	C (MIC's of greater than 8.0 μg/mL = C)											C (MIC's of greater than 8.0 μg/mL = C)	B (MIC's of greater than 1.0 μg/mL to 8.0 μg/mL = B)
N[C@H]1C[C@H]2CNCc3c(c(F)cc4c(=O)c(C(=O)O)cn(C5CC5)c34)N2C1.O=C(O)C(F)(F)F.O=C(O)C(F)(F)F [5/11, (3aS,5S)-5-amino-13-cyclopropyl-8-fluoro-10-oxo-2,3,3a,4,5,6,10,13-octahydro-1H-pyrrolo[2′,1′:3,4][1,4]diazepino[5,6-h]quinoline-11-carboxylic acid bis(trifluoroacetate)]	C (MIC's of greater than 8.0 μg/mL = C)	C (MIC's of greater than 8.0 μg/mL = C)	C (MIC's of greater than 8.0 μg/mL = C)	B (MIC's of greater than 1.0 μg/mL to 8.0 μg/mL = B)	B (MIC's of greater than 1.0 μg/mL to 8.0 μg/mL = B)	B (MIC's of greater than 1.0 μg/mL to 8.0 μg/mL = B)	A (MIC's of 1.0 μg/mL or less = A)	C (MIC's of greater than 8.0 μg/mL = C)											C (MIC's of greater than 8.0 μg/mL = C)	B (MIC's of greater than 1.0 μg/mL to 8.0 μg/mL = B)
NC1CCN2c3c(F)cc4c(=O)c(C(=O)O)cn(C5CC5)c4c3COCC12.O=C(O)C(F)(F)F [6/7, (3aS,4R)-4-amino-13-cyclopropyl-8-fluoro-10-oxo-3a,4,5,6,10,13-hexahydro-1H,3H-pyrrolo[2′,1′:3,4][1,4]oxazepino[5,6-h]quinoline-1′-carboxylic acid trifluoroacetate]	A (MIC's of 1.0 μg/mL or less = A)	B (MIC's of greater than 1.0 μg/mL to 8.0 μg/mL = B)	B (MIC's of greater than 1.0 μg/mL to 8.0 μg/mL = B)	A (MIC's of 1.0 μg/mL or less = A)	A (MIC's of 1.0 μg/mL or less = A)	A (MIC's of 1.0 μg/mL or less = A)	A (MIC's of 1.0 μg/mL or less = A)	C (MIC's of greater than 8.0 μg/mL = C)											B (MIC's of greater than 1.0 μg/mL to 8.0 μg/mL = B)	A (MIC's of 1.0 μg/mL or less = A)
N[C@H]1C[C@H]2CCCc3c(c(F)cc4c(=O)c(C(=O)O)cn(C5CC5)c34)N2C1.O=C(O)C(F)(F)F [7B/17, (7aR,9S)-9-Amino-4-cyclopropyl-12-fluoro-1-oxo-4,5,6,7,7a,8,9,10-octahydro-1H-pyrrolo[1′,′:1,7]-azepino[2,3-h]quinoline-2-carboxylic acid trifluoroacetate]	B (MIC's of greater than 1.0 μg/mL to 8.0 μg/mL = B)	C (MIC's of greater than 8.0 μg/mL = C)	B (MIC's of greater than 1.0 μg/mL to 8.0 μg/mL = B)	A (MIC's of 1.0 μg/mL or less = A)	A (MIC's of 1.0 μg/mL or less = A)	A (MIC's of 1.0 μg/mL or less = A)	A (MIC's of 1.0 μg/mL or less = A)	C (MIC's of greater than 8.0 μg/mL = C)											B (MIC's of greater than 1.0 μg/mL to 8.0 μg/mL = B)	B (MIC's of greater than 1.0 μg/mL to 8.0 μg/mL = B)

The next lines start with results.

MIC ASPN 1027 [1]	MIC AABA 1009 [2]	MIC AECO 066 [3]	MIC AABA 1065 [4]	MIC ASPN 001 [5]	MIC ASAU 001 [6]	MIC AECO 001 [7]	MIC APAE 054 [8]	MIC ([1]; Streptococcus pneumoniae, Table 2, read-out: MIC ASPN 1027)	MIC ([2]; Acinetobacter baumannii, Table 2, read-out: MIC AABA 1009)	MIC [3]	MIC [4]	MIC ([5]; Streptococcus pneumoniae, Table 2, read-out: MIC ASPN 001)	MIC [6]	MIC [7]	MIC ([8]; Pseudomonas aeruginosa, Table 2, read-out: MIC APAE 054)	MIC ([9]; Staphylococcus aureus, Table 2, read-out: MIC ASAU 1031)	MIC [10]	Structure (SMILES)	MIC ASAU 1031 [9]	MIC APAE 001 [10]
										> 8 µg/mL	> 8 µg/mL		> 8 µg/mL	> 8 µg/mL			> 8 µg/mL	O=C1CC2CCCN2c2c(F)cc3c(=O)c(C(=O)O)cn(C4CC4)c3c2N1 (stereo not drawn) [32/3]		
										> 8 µg/mL	> 8 µg/mL		1 to 8 µg/mL (≈ 2.9 to 23.2 µM)	> 8 µg/mL			> 8 µg/mL	O=C(O)c1cn(C2CC2)c2c3c(c(F)cc2c1=O)N1CCCC1CO3 (stereo not drawn) [Comparative Compound 1, reference compound]		
